{"source": "patent US20240216401A1", "about": "“COMBINATION THERAPY BY USING AKR1C3-ACTIVATED COMPOUND WITH IMMUNE CHECKPOINT INHIBITOR” (OBI Pharma, Inc., priority 2021, published 2024)", "system": "HepG2 tumor", "experiment": "Example 2: tumor volume, tumor weight and TGI in HepG2 tumor bearing humanized mice", "format": "in vivo, Mus musculus", "conditions": "for mean tumor volume: mean±SEM; for tumor growth inhibition (TGI): Day 30 vs Day 0, alone or with anti-hPD-1 20 mg/kg", "description": "1. Species: Mus musculus • Strain: Advanced immunodeficiency mouse. • (NOD.CgPrkdc^scid Il2rg) • Source: Trineo Biotechnology Co., LTD.\nEach group contains six mice. The human hepatocellular carcinoma cell line HepG2 were subcutaneously inoculated to the advanced immune-deficiency mice. Total of 42 mice were included in this study.\n2.2. […] The subcutaneous injection volume was […].\n3.1. […] The injection was performed using insulin syringe with the dosage of 0.3 mg/kg or 1 mg/kg and the injection volume was 5 mL/kg. […] The reference item was administered for G1. The procedure followed the standards of sample administration. The starting day of test item administration was denoted as the first experimental day (DO).\n3.2. […] The injection was performed using insulin syringe with the dosage of 20 mg/kg and injection volume of 10 mL/kg. […] The procedure followed the standards of sample administration.\nThe measurement was performed from the next day of the inoculation. The tumor volumes were measured and recorded twice a week (Mon., Thur.). Tumor volume was calculated by ellipsoid equation according to the records ((major axis×minor axis×minor axis)×(π/6)).\nTumor volumes were used to calculate tumor growth inhibition (TGI) rates according to the following formula: TGI (%)=[1−(Ti−T0)/(Ci−C0)]×100, where Ti and Ci indicate the mean tumor volume in the treatment groups and vehicle group at the end of the experiment (Day 30). Whereas, T0 and C0 indicate the mean tumor volumes in the treatment group and vehicle group at the beginning of the experiment (Day 0).\nMice were sacrificed by CO2 euthanasia at the end of the study duration, and the connective tissue around tumor was resected. The tumor samples were then weighed and cut equally into three sections if the tumor weight over 400 mg. The tumor tissue was prepared for the isolation of tumor-infiltrating lymphocytes (TILs). The rest of one section was fixed in 10% formaldehyde and embedded in paraffin; the other was stored at a temperature below −70° C.", "key": {"[1]": {"conditions": "G2 OBI-3424 (0.3 mg/kg), D30, group Mean"}, "[2]": {"conditions": "G2 OBI-3424 (0.3 mg/kg), D30, individual animals, 0.3 mg/kg"}}, "note": "Values joined by “and” are separate entries in the source; they are usually repeats but may differ in a detail not shown here. Identical values can stand only once."}
{"smiles": "C[C@H](OP(=O)(N1CC1)N1CC1)c1ccc([N+](=O)[O-])c(Oc2cccc(C(=O)N(C)C)c2)c1", "note": "[OBI-3424, (S)-1-(3-(3-N,N-dimethylaminocarbonyl)phenoxyl-4-mtrophenyl)-1-ethyl-N,N′-bis(ethylene)phosphoramidate]", "values": [{"measurement": "dose relation of reduction in mean tumor volume (in words)", "setting": "Example 2, D30, OBI-3424 0.3 mg/kg and 1 mg/kg", "value": "dose-related reduction"}, {"measurement": "mean tumor volume", "setting": "Example 2, D30, OBI-3424 0.3 mg/kg IV, alone (G2) or with anti-hPD-1 20 mg/kg IP (G5)", "value": "716.44±31.12", "unit": "mm^3"}, {"measurement": "mean tumor volume", "setting": "Example 2, D30, OBI-3424 1 mg/kg IV, alone (G3) or with anti-hPD-1 20 mg/kg IP (G6)", "value": "216.90±22.20", "unit": "mm^3"}, {"measurement": "mean tumor volume compared with vehicle (in words)", "setting": "Example 2, D30, vs vehicle (G1), OBI-3424 high-dose 1 mg/kg (G3), anti-hPD-1 20 mg/kg (G4), combinations G5-G7", "value": "significantly suppressed"}, {"measurement": "tumor weight compared with vehicle (in words)", "setting": "Example 2, Day 30, OBI-3424 low-dose (G2), high-dose (G3), combinations G5-G7 vs vehicle (G1)", "value": "significantly suppressed"}, {"measurement": "tumor growth inhibition (TGI)", "setting": "Example 2, high-dose OBI-3424 (1 mg/kg)", "value": 113.27, "unit": "%"}, {"measurement": "tumor growth inhibition (TGI)", "setting": "Example 2, low-dose OBI-3424 (0.3 mg/kg)", "value": 27.82, "unit": "%"}, {"measurement": "anti-tumor effect (conclusion in words)", "setting": "Example 2, HepG2 humanized mouse model, combination: high-dose OBI-3424", "value": "dose-dependent trend with anti-tumor activity"}, {"measurement": "TGI", "setting": "G2 OBI-3424 (0.3 mg/kg)", "value": 27.82, "unit": "%"}, {"measurement": "Tumor volume", "setting": "G2 OBI-3424 (0.3 mg/kg), D0, group Mean", "value": 293.3, "unit": "mm^3"}, {"measurement": "Tumor volume", "setting": "G2 OBI-3424 (0.3 mg/kg), D0, individual animals, 0.3 mg/kg", "value": "280.0 mm^3 and 279.4 mm^3 and 226.0 mm^3 and 353.6 mm^3 and 317.7 mm^3 and 303.0 mm^3"}, {"measurement": "Tumor volume", "setting": "G2 OBI-3424 (0.3 mg/kg), D2, group Mean", "value": 300.8, "unit": "mm^3"}, {"measurement": "Tumor volume", "setting": "G2 OBI-3424 (0.3 mg/kg), D2, individual animals, 0.3 mg/kg", "value": "283.9 mm^3 and 281.1 mm^3 and 230.6 mm^3 and 354.0 mm^3 and 321.0 mm^3 and 334.4 mm^3"}, {"measurement": "Tumor volume", "setting": "G2 OBI-3424 (0.3 mg/kg), D6, group Mean", "value": 307.8, "unit": "mm^3"}, {"measurement": "Tumor volume", "setting": "G2 OBI-3424 (0.3 mg/kg), D6, individual animals, 0.3 mg/kg", "value": "289.0 mm^3 and 293.9 mm^3 and 241.0 mm^3 and 356.0 mm^3 and 330.5 mm^3 and 336.3 mm^3"}, {"measurement": "Tumor volume", "setting": "G2 OBI-3424 (0.3 mg/kg), D9, group Mean", "value": 388.7, "unit": "mm^3"}, {"measurement": "Tumor volume", "setting": "G2 OBI-3424 (0.3 mg/kg), D9, individual animals, 0.3 mg/kg", "value": "375.6 mm^3 and 367.0 mm^3 and 395.2 mm^3 and 367.9 mm^3 and 388.9 mm^3 and 437.7 mm^3"}, {"measurement": "Tumor volume", "setting": "G2 OBI-3424 (0.3 mg/kg), D13, group Mean", "value": 509.0, "unit": "mm^3"}, {"measurement": "Tumor volume", "setting": "G2 OBI-3424 (0.3 mg/kg), D13, individual animals, 0.3 mg/kg", "value": "569.5 mm^3 and 452.6 mm^3 and 528.9 mm^3 and 388.3 mm^3 and 590.7 mm^3 and 524.2 mm^3"}, {"measurement": "Tumor volume", "setting": "G2 OBI-3424 (0.3 mg/kg), D16, group Mean", "value": 617.1, "unit": "mm^3"}, {"measurement": "Tumor volume", "setting": "G2 OBI-3424 (0.3 mg/kg), D16, individual animals, 0.3 mg/kg", "value": "714.1 mm^3 and 528.0 mm^3 and 714.4 mm^3 and 405.8 mm^3 and 749.1 mm^3 and 591.5 mm^3"}, {"measurement": "Tumor volume", "setting": "G2 OBI-3424 (0.3 mg/kg), D20, group Mean", "value": 702.3, "unit": "mm^3"}, {"measurement": "Tumor volume", "setting": "G2 OBI-3424 (0.3 mg/kg), D20, individual animals, 0.3 mg/kg", "value": "808.4 mm^3 and 658.4 mm^3 and 854.0 mm^3 and 419.5 mm^3 and 751.9 mm^3 and 721.3 mm^3"}, {"measurement": "Tumor volume", "setting": "G2 OBI-3424 (0.3 mg/kg), D23, group Mean", "value": 744.1, "unit": "mm^3"}, {"measurement": "Tumor volume", "setting": "G2 OBI-3424 (0.3 mg/kg), D23, individual animals, 0.3 mg/kg", "value": "889.2 mm^3 and 661.3 mm^3 and 890.1 mm^3 and 297.5 mm^3 and 842.6 mm^3 and 884.2 mm^3"}, {"measurement": "Tumor volume", "setting": "G2 OBI-3424 (0.3 mg/kg), D27, group Mean", "value": 717.3, "unit": "mm^3"}, {"measurement": "Tumor volume", "setting": "G2 OBI-3424 (0.3 mg/kg), D27, individual animals, 0.3 mg/kg", "value": "926.9 mm^3 and 527.6 mm^3 and 909.1 mm^3 and 205.1 mm^3 and 848.5 mm^3 and 886.5 mm^3"}, {"measurement": "Tumor volume", "setting": "[1]", "value": 716.4, "unit": "mm^3"}, {"measurement": "Tumor weight", "setting": "[1]", "value": 304.45, "unit": "mg"}, {"measurement": "Tumor volume", "setting": "[2]", "value": "1012. mm^3 and 468.2 mm^3 and 882.8 mm^3 and 181.5 mm^3 and 850.4 mm^3 and 903.5 mm^3"}, {"measurement": "Tumor weight", "setting": "[2]", "value": "445.50 mg and 223.90 mg and 327.90 mg and 63.40 mg and 449.00 mg and 317.00 mg"}, {"measurement": "TGI", "setting": "G3 OBI-3424 (1 mg/kg)", "value": 113.27, "unit": "%"}, {"measurement": "Tumor volume", "setting": "G3 OBI-3424 (1 mg/kg), D0, individual animals, 1 mg/kg", "value": "290.8 mm^3 and 318.0 mm^3 and 286.8 mm^3"}, {"measurement": "Tumor volume", "setting": "G3 OBI-3424 (1 mg/kg), D2, individual animals, 1 mg/kg", "value": "295.5 mm^3 and 322.4 mm^3 and 292.9 mm^3"}]}
